Values of other authors as cited in patent US20100056645A1, “Chromatographic Media and Chromatographic Equipment Storage Solutions and Use Thereof” (priority 2007, published 2010).

Test system: gram positive bacteria

OCc1ccccc1 [benzyl alcohol]
pH of optimal bactericidal activity: < 5.0
